# Literature values, collected in article PMC9306982 (Journal of Food and Drug Analysis, 2019).
# How the values were obtained:
# xanthine oxidase = conditions: for inhibitory activity against xanthine oxidase (in words): isolates from aerial part of Hyptis rhomboids
# [1] = compared with caffeoylquinic acids
# [2] = system: potassium oxonate-treated rat; conditions: oral administration
molecule,measurement,setting,value
"O=C(O)/C=C/c1ccc(O)c(O)c1 [Compound 11, caffeic acid]",xanthine oxidase inhibitory activity (in words),xanthine oxidase,moderate
same,bioavailability (in words),[1],better
epihyprhombin B,inhibitory activity against xanthine oxidase (in words),xanthine oxidase,good
O=C(/C=C/c1ccc(O)c(O)c1)O/C=C\c1ccc(O)c(O)c1 [netpetoidin B],inhibitory activity against xanthine oxidase (in words),xanthine oxidase,good
"COC(=O)C1(O)CC(O)C(OC(=O)C=Cc2ccc(O)c(O)c2)C(OC(=O)C=Cc2ccc(O)c(O)c2)C1 (centres unmarked) [methyl 4,5-dicaffeoylquinate]",hypouricemic effect (in words),[2],good
